Literature values, collected in US7582314B2, “Compositions and methods for the management of hyperproliferative dermatological conditions” (Sami Labs Ltd., priority 2003, dated 2009).
Like-named read-outs stand apart in the source and are kept apart here.

Tests used:
[1] = test system: damage to the skin induced by UV radiation; conditions: topical; experimental animals
[2] = test system: plaque psoriasis; conditions: oral supplementation; psoriasis patients
[3] = test system: damage to the skin induced by UV radiation; conditions: topical; human subjects

SMILES: C[Se]CC[C@H](N)C(=O)O [selenomethionine]
- degree of damage to the skin induced by UV radiation [1]: reduces
- efficacy as adjuvant treatment in plaque psoriasis [2]: ineffective
- degree of damage to the skin induced by UV radiation [3]: reduces
